Measured values reported in article PMC5487684, “Safety, Pharmacokinetics, and Antiviral Activity of a Novel HIV Antiviral, ABX464, in Treatment-Naive HIV-Infected Subjects in a Phase 2 Randomized, Controlled Study” (Antimicrobial Agents and Chemotherapy, 2017).

Test system: HIV
Experiment: HIV viral load (HIV-1 RNA copies per milliliter) in treatment-naive HIV-infected patients
Type: in vivo
Procedure: Safety assessments and laboratory tests were carried out according to the schedules described in Table S4 for groups dosed every day, every 3 days, and 3 times a day. Follow-up visits were scheduled for 7 days after the last dose and subsequently once every week in order to assess the elimination of the main ABX464 metabolite and to assess the viral load. Follow-up visits were terminated when the virus load was within 0.5 log of the baseline value or after 3 follow-up visits, whichever came first. Prior to the statistical analyses, AEs were coded using the Medical Dictionary for Regulatory Activities (MedDRA dictionary; last available version) in order to be tabulated by system organ class (SOC) and preferred term (PT). The AEs were analyzed according to the treatment emergence phase from the first study drug administration on day 1 up to 48 h after the last study drug administration. The number and percentage of subjects with at least one TEAE were tabulated by SOC and PT for each group and dose. The number of occurrences of TEAEs was also analyzed in the same way by SOC and PT for each group and dose, by grade of severity for each group and dose, and by level of causality to the study drug for each group and dose.
Plasma samples were analyzed for ABX464 and ABX464-NGlc using validated bioanalytical methods by Atlanbio (Saint Nazaire, France) according to good laboratory practices. Pharmacokinetic parameters were calculated by noncompartmental analysis (NCA), using Phoenix WinNonlin software (Pharsight Corporation) running on a personal computer. On day 1, the following PK parameters were generated: Cmax, the time to Cmax (Tmax), lag time (tlag), elimination rate constant (kel), area under the concentration-time curve (AUC) from time zero to time t (AUC0–t), AUC from time zero to infinity (AUC0–∞), apparent clearance (CL/F), and apparent volume of distribution (V/F). On the other days of PK assessment, only Cmax, Tmax, tlag, kel, and AUC0–t were generated. The secondary analysis concerned pharmacodynamic (PD) activity, as expressed by CD4 and CD8 levels and viral load across time. The HIV viral load was analyzed in the prequalified individual local study center laboratories. CD4 and CD8 cell counts were also determined in the local study center laboratories. With respect to the viral load, changes in the log-transformed viral load values between 24 h postdose and predose were calculated on each day, and a comparison between each dose level and pooled placebo data was made. Moreover, the rate of success (defined as a decrease in the viral load value of at least 0.5 log) was evaluated for each treatment (including placebo) and compared between treatments.
No formal sample size determination was done. The aim of the study was to obtain reliable and consistent data and to expose a limited number of subjects to ABX464. To achieve this aim, six subjects per group received ABX464. A mixed model analysis of covariance of the changes in the viral load compared to that at the baseline was conducted on log-transformed values. Baseline parameters and age were covariates, treatment groups were fixed effects, and subjects were random effects.

FC(F)(F)Oc1ccc(Nc2ccc3cccc(Cl)c3n2)cc1 [ABX464]
Subjects demonstrating an antiviral response (75 mg once a day): 16%
Subjects demonstrating an antiviral response (100 mg once a day): 33%
Subjects demonstrating an antiviral response (150 mg once a day): 66%
Mixed model analysis, RNA viral load Day 2 to Day 14, Treatment Group Estimate (ABX464 150 mg once a day vs. Placebo): -0.1559
Measurements demonstrating a 0.5 log10 decrease over the treatment period (ABX464-treated subjects): 49 measurements
Change in log10 no. of RNA copies/ml from that at the baseline (Group 1 (25 mg every 3 days, fasted), subject 102, day 4): −0.99 log10 no. of RNA copies/ml
Change in log10 no. of RNA copies/ml from that at the baseline (Group 1 (25 mg every 3 days, fasted), subject 102, day 5): −1.47 log10 no. of RNA copies/ml
Change in log10 no. of RNA copies/ml from that at the baseline (Group 1 (25 mg every 3 days, fasted), subject 102, day 7): −1.36 log10 no. of RNA copies/ml
Change in log10 no. of RNA copies/ml from that at the baseline (Group 1 (25 mg every 3 days, fasted), subject 102, day 8): −1.57 log10 no. of RNA copies/ml
Change in log10 no. of RNA copies/ml from that at the baseline (Group 1 (25 mg every 3 days, fasted), subject 102, day 10): −1.43 log10 no. of RNA copies/ml
Change in log10 no. of RNA copies/ml from that at the baseline (Group 1 (25 mg every 3 days, fasted), subject 102, day 11): −1.61 log10 no. of RNA copies/ml
Change in log10 no. of RNA copies/ml from that at the baseline (Group 1 (25 mg every 3 days, fasted), subject 102, day 13): −1.4 log10 no. of RNA copies/ml
Change in log10 no. of RNA copies/ml from that at the baseline (Group 1 (25 mg every 3 days, fasted), subject 102, day 14): −1.51 log10 no. of RNA copies/ml
Change in log10 no. of RNA copies/ml from that at the baseline (Group 1 (25 mg every 3 days, fasted), subject 105, day 14): −0.5 log10 no. of RNA copies/ml
Change in log10 no. of RNA copies/ml from that at the baseline (Group 1 (25 mg every 3 days, fasted), subject 105, day 16): −0.52 log10 no. of RNA copies/ml
Change in log10 no. of RNA copies/ml from that at the baseline (Group 1 (25 mg every 3 days, fasted), subject 105, day 17): −0.65 log10 no. of RNA copies/ml
Change in log10 no. of RNA copies/ml from that at the baseline (Group 1 (25 mg every 3 days, fasted), subject 106, day 5): −0.72 log10 no. of RNA copies/ml
Change in log10 no. of RNA copies/ml from that at the baseline (Group 1 (25 mg every 3 days, fasted), subject 106, day 11): −0.56 log10 no. of RNA copies/ml
Change in log10 no. of RNA copies/ml from that at the baseline (Group 1 (25 mg every 3 days, fasted), subject 106, day 13): −0.62 log10 no. of RNA copies/ml
Change in log10 no. of RNA copies/ml from that at the baseline (Group 1 (25 mg every 3 days, fasted), subject 106, day 16): −0.74 log10 no. of RNA copies/ml
Change in log10 no. of RNA copies/ml from that at the baseline (Group 1 (25 mg every 3 days, fasted), subject 106, day 17): −0.51 log10 no. of RNA copies/ml
Change in log10 no. of RNA copies/ml from that at the baseline (Group 1 (25 mg every 3 days, fasted), subject 106, day 19): −0.61 log10 no. of RNA copies/ml
Change in log10 no. of RNA copies/ml from that at the baseline (Group 2 (25 mg q.d., fasted), subject 201, day 14): −0.54 log10 no. of RNA copies/ml
Change in log10 no. of RNA copies/ml from that at the baseline (Group 4 (50 mg t.i.d., fed), subject 2007, day 10): −0.62 log10 no. of RNA copies/ml
Change in log10 no. of RNA copies/ml from that at the baseline (Group 4 (50 mg t.i.d., fed), subject 2009, day 10): −0.72 log10 no. of RNA copies/ml
Change in log10 no. of RNA copies/ml from that at the baseline (Group 4 (50 mg t.i.d., fed), subject 2009, day 14): −1.23 log10 no. of RNA copies/ml
Change in log10 no. of RNA copies/ml from that at the baseline (Group 4 (50 mg t.i.d., fed), subject 2009, day 18): −1.39 log10 no. of RNA copies/ml
Change in log10 no. of RNA copies/ml from that at the baseline (Group 5 (75 mg q.d., fed), subject 605, day 2): −0.71 log10 no. of RNA copies/ml
Change in log10 no. of RNA copies/ml from that at the baseline (Group 5 (75 mg q.d., fed), subject 605, day 4): −0.77 log10 no. of RNA copies/ml
Change in log10 no. of RNA copies/ml from that at the baseline (Group 5 (75 mg q.d., fed), subject 605, day 5): −0.76 log10 no. of RNA copies/ml
Change in log10 no. of RNA copies/ml from that at the baseline (Group 5 (75 mg q.d., fed), subject 605, day 7): −0.89 log10 no. of RNA copies/ml
Change in log10 no. of RNA copies/ml from that at the baseline (Group 5 (75 mg q.d., fed), subject 605, day 8): −0.83 log10 no. of RNA copies/ml
Change in log10 no. of RNA copies/ml from that at the baseline (Group 5 (75 mg q.d., fed), subject 605, day 10): −1.06 log10 no. of RNA copies/ml
Change in log10 no. of RNA copies/ml from that at the baseline (Group 5 (75 mg q.d., fed), subject 605, day 11): −1.05 log10 no. of RNA copies/ml
Change in log10 no. of RNA copies/ml from that at the baseline (Group 6 (100 mg q.d., fasted), subject 804, day 11): −0.52 log10 no. of RNA copies/ml
Change in log10 no. of RNA copies/ml from that at the baseline (Group 6 (100 mg q.d., fasted), subject 804, day 15): −0.59 log10 no. of RNA copies/ml
Change in log10 no. of RNA copies/ml from that at the baseline (Group 6 (100 mg q.d., fasted), subject 807, day 11): −0.51 log10 no. of RNA copies/ml
Change in log10 no. of RNA copies/ml from that at the baseline (Group 6 (100 mg q.d., fasted), subject 807, day 18): −1.44 log10 no. of RNA copies/ml
